Holding throughout (type): biochemical
The target of experiment [1] is phosphorylated p-38-alpha kinase (Homo sapiens, UniProt Q16539). The experiment in a line: P-38 alpha kinase assay P1 (coupled spectrophotometric, 2 h pre-incubation). The note with it: method P1 (2 h pre-incubation); read-out: P-38 Data.
Experiment [2] deals with B-Raf(V599E) kinase (Homo sapiens, UniProt P15056, V600E). The experiment is described as follows: B-Raf(V599E) kinase assay B1 (construct 1, MEK1 substrate, coupled spectrophotometric). Here is the method: The test compounds were incubated with the reaction mixtureat 30° C. for 2 h. […] The reaction rate was calculated using the […] time frame. […] IC50 values were calculated from a series of percent inhibition values determined at a range of inhibitor concentrations using software routines as implemented in the GraphPad Prism software package.

Experiment [3] concerns the target T1, Abl kinase (Homo sapiens, UniProt P00519).
T1 sequence (P00519 229-512): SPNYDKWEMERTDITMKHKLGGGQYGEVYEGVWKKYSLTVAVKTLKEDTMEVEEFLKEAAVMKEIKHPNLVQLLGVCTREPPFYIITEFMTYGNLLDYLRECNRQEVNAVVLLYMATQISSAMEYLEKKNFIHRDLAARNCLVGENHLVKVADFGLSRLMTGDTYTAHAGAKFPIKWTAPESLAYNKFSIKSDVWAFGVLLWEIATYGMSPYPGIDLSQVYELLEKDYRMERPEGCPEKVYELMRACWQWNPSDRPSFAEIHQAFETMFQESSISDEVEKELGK
The experiment in a line: Abl kinase assay A1 (pyruvate kinase/lactate dehydrogenase coupled, spectrophotometric). The conditions noted are these: Method A1; read-out: Abl Data (IC50). Here is the method: IC50 values were calculated from a series of percent inhibition values determined at a range of inhibitor concentrations using software routines as implemented in the GraphPad Prism software package.

B-Raf(V599E) kinase, sequence (P15056 with tags, fused parts or gaps V600E): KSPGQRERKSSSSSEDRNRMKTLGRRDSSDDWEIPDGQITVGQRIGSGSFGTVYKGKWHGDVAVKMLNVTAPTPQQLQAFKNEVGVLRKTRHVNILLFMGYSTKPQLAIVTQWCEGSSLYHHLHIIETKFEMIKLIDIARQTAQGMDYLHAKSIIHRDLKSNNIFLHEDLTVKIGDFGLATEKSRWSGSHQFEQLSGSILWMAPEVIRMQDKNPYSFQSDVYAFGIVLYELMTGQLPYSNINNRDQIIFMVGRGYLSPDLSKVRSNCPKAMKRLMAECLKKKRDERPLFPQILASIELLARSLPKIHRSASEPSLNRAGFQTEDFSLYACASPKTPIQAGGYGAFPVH
phosphorylated p-38-alpha kinase, sequence (Q16539 1-360 isoform Q16539-2): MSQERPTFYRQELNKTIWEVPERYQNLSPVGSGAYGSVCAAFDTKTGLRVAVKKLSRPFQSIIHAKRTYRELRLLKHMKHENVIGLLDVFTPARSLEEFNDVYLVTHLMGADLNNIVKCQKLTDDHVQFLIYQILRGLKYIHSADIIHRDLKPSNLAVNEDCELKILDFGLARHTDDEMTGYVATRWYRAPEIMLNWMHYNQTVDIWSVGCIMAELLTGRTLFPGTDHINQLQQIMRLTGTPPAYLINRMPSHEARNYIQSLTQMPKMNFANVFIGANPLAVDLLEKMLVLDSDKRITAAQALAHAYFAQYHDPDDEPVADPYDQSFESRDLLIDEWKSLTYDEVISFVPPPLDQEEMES

For `CC(C)(C)c1cc(NC(=O)Nc2ccc(F)c(F)c2F)n(-c2cccc(CC(=O)O)c2)n1` [Example 356, 2-(3-(3-t-butyl-5-(3-(2,3,4-trifluorophenyl)-ureido)-1H-pyrazol-1-yl)phenyl)acetic acid], the IC50 in experiment [1] was 72 nM; in experiment [2], 14 nM. Take `CC(C)(C)c1cc(NC(=O)Nc2cccc(Cl)c2Cl)n(-c2cccc(CC(=O)NCC(O)CO)c2)n1` (stereo not drawn) [Example 440, 1-(3-t-butyl-1-(3-(2-(2,3-dihydroxypropylamino)-2-oxoethyl)phenyl)-1H-pyrazol-5-yl)-3-(2,3-dichlorophenyl)urea]: the IC50 in experiment [1] turned out to be 7 nM; in experiment [2], 4.1 nM. On the same counts, the results for `CC(C)(C)c1ncc(NC(=O)Nc2cccc(Cl)c2Cl)c(-c2ccccc2)n1` [Example 279, 1-(2-t-butyl-4-phenylpyrimidin-5-yl)-3-(2,3-dichlorophenyl)urea] are 1050 nM and 697 nM. `COc1cccc(NC(=O)Nc2cc(C(C)(C)C)nn2-c2cccc(C#N)c2)c1` [Example 10]: in experiment [3], the IC50 was found to be 4300 nM.

In the case of `CC(C)(C)c1cc(NC(=O)Nc2cccc(C(F)(F)F)c2)n(-c2cccc(C#N)c2)n1` [Example 11], the IC50 in experiment [3] amounted to 5100 nM. As to `CC(C)(C)c1cc(NC(=O)Nc2cc(F)ccc2F)n(-c2cc(CC(N)=O)c3ccccc3c2)n1` [Example 87, 1-(1-(4-(2-amino-2-oxoethyl)naphthalen-2-yl)-3-t-butyl-1H-pyrazol-5-yl)-3-(2,5-difluorophenyl)urea], in experiment [3], the IC50 came out at 73 nM. With `CO[C@@H]1CCN(C(=O)Cc2cccc(-n3nc(C(C)(C)C)cc3NC(=O)Nc3cccc(Cl)c3Cl)c2)C1` [Example 444, 1-(3-t-butyl-1-(3-(2-((R)-3-methoxypyrrolidin-1-yl)-2-oxoethyl)phenyl)-1H-pyrazol-5-yl)-3-(2,3-dichlorophenyl)urea], the IC50 in experiment [1] amounted to 63 nM; in experiment [2], 20 nM.

On to `COC[C@@H]1CCCN1C(=O)Cc1cccc(-n2nc(C(C)(C)C)cc2NC(=O)Nc2cccc(Cl)c2Cl)c1` [Example 409, 1-(3-t-butyl-1-(3-(2-((S)-2-(methoxymethyl)pyrrolidin-1-yl)-2-oxoethyl)phenyl)-1H-pyrazol-5-yl)-3-(2,3-dichlorophenyl)urea], for which the IC50 in experiment [1] came out at 150 nM. `O=C(O)Cc1cccc(-n2nc(-c3ccccc3F)cc2NC(=O)N[C@H]2CCc3ccccc32)c1` [Example 360, 2-(3-(5-(3-((S)-2,3-dihydro-1H-inden-1-yl)ureido)-3-(2-fluorophenyl)-1H-pyrazol-1-yl)phenyl)acetic acid]: in experiment [1], the IC50 was found to be 20 nM. With `O=C(Cc1cccc(-n2nc(-c3ccccc3F)cc2NC(=O)N[C@H]2CCc3ccccc32)c1)NCC(O)CO` (stereo partly drawn) [Example 413, 1-((S)-2,3-dihydro-1H-inden-1-yl)-3-(1-(3-(2-(2,3-dihydroxypropylamino)-2-oxoethyl)phenyl)-3-(2-fluorophenyl)-1H-pyrazol-5-yl)urea], the IC50 in experiment [1] came to 28 nM.

Take `CC(C)(C)c1cc(NC(=O)NC2CCCCC2)n(-c2cc(CC(N)=O)c3ccccc3c2)n1` [Example 91, 1-(1-(4-(2-amino-2-oxoethyl)naphthalen-2-yl)-3-t-butyl-1H-pyrazol-5-yl)-3-cyclohexylurea]: the figures for the IC50 in experiment [1] and in experiment [2] were 350 nM and 20 nM, respectively. Regarding `CNC(=O)Cc1cccc(-n2nc(C(C)(C)C)cc2NC(=O)Nc2cccc(F)c2F)c1` [Example 401, 1-(3-t-butyl-1-(3-(2-(methylamino)-2-oxoethyl)phenyl)-1H-pyrazol-5-yl)-3-(2,3-difluorophenyl)urea], the IC50 in experiment [1] was 63 nM. Take `CC(C)(C)c1cc(NC(=O)Nc2ccc(Cl)cc2)n(-c2cccc(CO)c2)n1` [Example 224]: the IC50 in experiment [1] was found to be 38 nM. On the same count and under the same terms, next, `O=C(Cc1ccc(-n2nc(-c3cccs3)cc2NC(=O)N[C@H]2CCc3ccccc32)cc1)NCCO` [Example 490, 1-((S)-2,3-dihydro-1H-inden-1-yl)-3-(1-(4-(2-(2-hydroxyethylamino)-2-oxoethyl)phenyl)-3-(thiophen-2-yl)-1H-pyrazol-5-yl)urea]: 53 nM; `O=C(Cc1cccc(-n2nc(-c3cccs3)cc2NC(=O)N[C@H]2CCc3ccccc32)c1)NCCO` [Example 416, 1-((S)-2,3-dihydro-1H-inden-1-yl)-3-(1-(3-(2-(2-hydroxyethylamino)-2-oxoethyl)phenyl)-3-(thiophen-2-yl)-1H-pyrazol-5-yl)urea]: 32 nM; `O=C(O)Cc1cccc(-n2nc(-c3cccs3)cc2NC(=O)N[C@H]2CCc3ccccc32)c1` [Example 361, 2-(3-(5-(3-((S)-2,3-dihydro-1H-inden-1-yl)ureido)-3-(thiophen-2-yl)-1H-pyrazol-1-yl)phenyl)acetic acid]: 30 nM.

In the case of `O=C(O)Cc1cccc(-n2nc(-c3cccs3)cc2NC(=O)Nc2cccc3ccccc23)c1` [Example 364, 2-(3-(5-(3-(naphthalen-1-yl)ureido)-3-(thiophen-2-yl)-1H-pyrazol-1-yl)phenyl)acetic acid], the IC50 in experiment [1] is 13 nM. On to `CC(C)(C)c1ncc(NC(=O)Nc2cccc(Oc3cccnc3)c2)c(-c2ccccc2)n1` [Example 281, 1-(2-t-butyl-4-phenylpyrimidin-5-yl)-3-(3-(pyridin-3-yloxy)phenyl)urea], for which the IC50 in experiment [1] was determined as 5800 nM; in experiment [2], 369 nM. Consider `O=C(O)Cc1cccc(-n2nc(-c3ccccc3F)cc2NC(=O)Nc2cccc3ccccc23)c1` [Example 363, 2-(3-(3-(2-Fluorophenyl)-5-(3-(naphthalen-1-yl)ureido)-1H-pyrazol-1-yl)phenyl)acetic acid], for which the IC50 in experiment [1] came to 13 nM. For `CN(C)[C@H]1CCN(C(=O)Cc2cccc(-n3nc(C4CCCC4)cc3NC(=O)Nc3cccc(Cl)c3Cl)c2)C1` [Example 419, 1-(3-cyclopentyl-1-(3-(2-((S)-3-(dimethylamino)pyrrolidin-1-yl)-2-oxoethyl)phenyl)-1H-pyrazol-5-yl)-3-(2,3-dichlorophenyl)urea], the IC50 in experiment [1] is 38 nM. On the same count and under the same terms, to `NC(=O)Cc1cccc(-n2nc(-c3ccccc3F)cc2NC(=O)N[C@H]2CCc3ccccc32)c1` [Example 411, 1-(1-(3-(2-amino-2-oxoethyl)phenyl)-3-(2-fluorophenyl)-1H-pyrazol-5-yl)-3-((S)-2,3-dihydro-1H-inden-1-yl)urea] belongs 37 nM; to `O=C(O)Cc1ccc(-n2nc(-c3cccs3)cc2NC(=O)N[C@H]2CCc3ccccc32)cc1` [Example 389, 2-(4-(5-(3-((S)-2,3-dihydro-1H-inden-1-yl)ureido)-3-(thiophen-2-yl)-1H-pyrazol-1-yl)phenyl)acetic acid], 13 nM. Turning to `O=C(O)Cc1cccc(-n2nc(-c3ccccc3F)cc2NC(=O)Nc2ccc(F)c(F)c2F)c1` [Example 362, 2-(3-(3-(2-fluorophenyl)-5-(3-(2,3,4-trifluorophenyl)-ureido)-1H-pyrazol-1-yl)phenyl)acetic acid], the IC50 in experiment [1] came out at 38 nM.

In the case of `NC(=O)Cc1cccc(-n2nc(-c3ccccc3F)cc2NC(=O)Nc2ccc(F)c(F)c2F)c1` [Example 422, 1-(1-(3-(2-Amino-2-oxoethyl)phenyl)-3-(2-fluorophenyl)-1H-pyrazol-5-yl)-3-(2,3,4-trifluorophemyl)urea], the IC50 in experiment [1] was found to be 98 nM. For `O=C(O)Cc1cccc(-n2nc(-c3nccs3)cc2NC(=O)Nc2cccc(Cl)c2Cl)c1` [Example 359, 2-(3-(5-(3-(2,3-dichlorophenyl)ureido)-3-(thiazol-2-yl)-1H-pyrazol-1-yl)phenyl)acetic acid], in experiment [1], the IC50 stood at 70 nM. With `CC(C)(C)c1cc(NC(=O)Nc2cccc(Cl)c2Cl)n(-c2cccc(CC(=O)N3CCC[C@@H]3CO)c2)n1` [Example 407, 1-(3-t-butyl-1-(3-(2-((R)-2-(hydroxymethyl)pyrrolidin-1-yl)-2-oxoethyl)phenyl)-1H-pyrazol-5-yl)-3-(2,3-dichlorophenyl)urea], the IC50 in experiment [1] was determined as 45 nM. As for `CC(C)(C)c1cc(NC(=O)Nc2cccc(Cl)c2Cl)n(-c2ccc(CC(=O)NCC(O)CO)cc2)n1` (stereo not drawn) [Example 493], the IC50 in experiment [1] was 4 nM; in experiment [2], 11 nM. Take `CC(C)(C)c1cc(NC(=O)Nc2ccccc2)n(-c2cc(CC(=O)O)c3ccccc3c2)n1` [Example 301, {3-[3-t-butyl-5-(3-phenylureido)pyrazol-1-yl]naphthalen-1-yl}acetic acid]: the IC50 came to 160 nM in experiment [1] and 10 nM in experiment [2].

For the compound `NC(=O)Cc1cccc(-n2nc(-c3cccs3)cc2NC(=O)N[C@H]2CCc3ccccc32)c1` [Example 415, 1-(1-(3-(2-amino-2-oxoethyl)phenyl)-3-(thiophen-2-yl)-1H-pyrazol-5-yl)-3-((S)-2,3-dihydro-1H-inden-1-yl)urea], the IC50 in experiment [1] amounted to 17 nM. Take `O=C(Cc1ccc(-n2nc(-c3cccc(F)c3)cc2NC(=O)Nc2cccc(Cl)c2Cl)cc1)NCC(O)CO` (stereo not drawn) [Example 481, 1-(2,3-dichlorophenyl)-3-(1-(4-(2-(2,3-dihydroxypropylamino)-2-oxoethyl)phenyl)-3-(3-fluorophenyl)-1H-pyrazol-5-yl)urea]: the IC50 in experiment [1] was 33 nM.

In the case of `O=C(Cc1cccc(-n2nc(-c3ccccc3F)cc2NC(=O)N[C@H]2CCc3ccccc32)c1)NCCO` [Example 412, 1-((S)-2,3-dihydro-1H-inden-1-yl)-3-(3-(2-fluorophenyl)-1-(3-(2-(2-hydroxyethylamino)-2-oxoethyl)phenyl)-1H-pyrazol-5-yl)urea], the IC50 in experiment [1] was 41 nM.

The values are drawn from US8163756B2 (priority 2004, dated 2012).
